The values below come from patent US7368453B2, “Quinazolinone compounds with reduced bioaccumulation” (Chiron Corporation, priority 2003, dated 2008).

Where two headings read alike, the source gives them in different places.

This data set can be described thus: Tissue half-life (t1/2) and Cmax in plasma, brain, kidney and liver after oral administration to CD-1 mice. The data set is classed as in vivo, mouse. As to conditions: for half-life: male, mouse. The protocol:
In vivo studies were conducted to observe the effect of the compounds of the invention in the subject animal. Male CD-1 mice, body weight of 20 grams at arrival, were used in these studies. Mice were given 30 mg/kg of compound in HPMC/Tween solution or suspension via oral gavage. Plasma, brain, and liver samples were collected at time periods of 1, 2, 4, 8, and 24 hours post dosing. One mouse was used per time point. Thus, a total of 5 mice were used for each compound tested. For sample collection, mice were euthanized with CO2. Blood samples were taken by cardiac puncture and kept on ice. Brain and liver samples were collected immediately after bleeding and the samples were kept on dry ice. For calculation of tissue half-lives (t1/2s), the terminal rate constant k was estimated by the absolute value of the slope of a log-linear regression of the terminal phase of the tissue concentration-time profile. The tissue half-life t1/2 is ln(2)/k.
The following table includes t1/2 data for plasma, brain, kidney, and liver obtained after oral administration.
Tissue Half-Life Data for Various Quinazolinone Compounds (PO)

Setting [1] is: brain t1/2, 30 mg/kg oral gavage (PO), read-out: Half-Lives (h) Brain (converted).
Where [2] appears, read: kidney t1/2, 30 mg/kg oral gavage (PO), read-out: Half-Lives (h) Kidney (converted).
Where [3] appears, read: liver t1/2, 30 mg/kg oral gavage (PO), read-out: Half-Lives (h) Liver (converted).
Where [4] appears, read: plasma t1/2, 30 mg/kg oral gavage (PO), read-out: Half-Lives (h) Plasma (converted).
Where [5] appears, read: brain t1/2, 30 mg/kg oral gavage (PO).
Where [6] appears, read: liver t1/2, 30 mg/kg oral gavage (PO).
The mark [7] stands for this setting: plasma t1/2, 30 mg/kg oral gavage (PO).

With `COc1ccc(CCn2c(N3CCOCC3)nc3cc(NC(=N[C@H]4C[C@H]5C[C@@H]([C@@H]4C)C5(C)C)N4CCN[C@@H](CF)C4)ccc3c2=O)c(F)c1` [Example 253], the half-life reads like this: under setting [1], 27 h; under setting [2], 14 h; under setting [3], 6.9 h; under setting [4], 7.3 h.

Turning to `COc1ccc(CCn2c(-c3nccs3)nc3cc(NC(=N[C@H]4C[C@H]5C[C@@H]([C@@H]4C)C5(C)C)N4CCN[C@@H](CF)C4)ccc3c2=O)c(F)c1` [Example 254, (3R)-N-[3-[2-(2-fluoro-4-methoxyphenyl)ethyl]-4-oxo-2-(1,3-thiazol-2-yl)-3,4-dihydroquinazolin-7-yl]-3-(fluoromethyl)-N′-[(1 S,2S,3S,5R)-2,6,6-trimethylbicyclo[3.1.1]hept-3-yl]piperazine-1-carboximidamide], the half-life was 11 h under setting [1], 9.6 h under setting [2], 20 h under setting [3] and 15 h under setting [4].

Turning to `COc1ccc(CCn2c(-c3ncc[nH]3)nc3cc(NC(=N[C@H]4C[C@H]5C[C@@H]([C@@H]4C)C5(C)C)N4CCN[C@@H](CF)C4)ccc3c2=O)c(F)c1` [Example 255, (3R)-N-[3-[2-(2-fluoro-4-methoxyphenyl)ethyl]-2-(1H-imidazoi-2-yl)-4-oxo-3,4-dihydroquinazolin-7-yl]-3-(fluoromethyl)-N′-[(1S,2S,3S,5R)-2,6,6-trimethylbicyclo[3.1.1]hept-3-yl]piperazine-1-carboximidamide], the half-life reads like this: under setting [1], 25 h; under setting [3], 7.3 h; under setting [4], 5.6 h.

On to `COc1ccc(CCn2c(C#N)nc3cc(NC(=NC4C[C@H]5C[C@@H]([C@@H]4C)C5(C)C)N4CCN[C@@H](CF)C4)ccc3c2=O)c(F)c1` (stereo partly drawn) [Example 256, (3R)-N-{2-cyano-3-[2-(2-fluoro-4-methoxyphenyl)ethyl]-4-oxo-3,4-dihydroquinazolin-7-yl}-3-(fluoromethyl)-N′-[(1S,2S,5R)-26,6-trimethylbicyclo[3.1.1]hept-3-yl]piperazine-1-carboximidamide], for which the “Half-Lives (h) Brain” value under setting [5] came to 15 h. Besides, under setting [6], the “Half-Lives (h) Liver” value is on record as 4.3 h. Besides, the “Half-Lives (h) Plasma” value under setting [7] was 5.4 h.

Consider `C[C@@H]1[C@@H](N=C(Nc2ccc3c(=O)n(CCc4ccc(F)cc4)c(CF)nc3c2)N2CCN[C@@H](CF)C2)C[C@H]2C[C@@H]1C2(C)C` [Example 257, (3R)-3-(fluoromethyl)-N-{2-(fluoromethyl)-3-[2-(4-fluorophenyl)ethyl]-4-oxo-3,4-dihydroquinazolin-7-yl}-N′-[(1 S,2S,3S,5R)-2,6,6-trimethylbicyclo[3.1.1]hept-3-yl]piperazine-1-carboximidamide], for which the half-life is, setting by setting: under setting [1], 12 h; under setting [3], 3 h; under setting [4], 20 h.

For `COc1ccc(CCn2c(NC3CC3)nc3cc(NC(=N[C@H]4C[C@H]5C[C@@H]([C@@H]4C)C5(C)C)N4CCN[C@@H](CF)C4)ccc3c2=O)c(F)c1` [Example 258, (3R)-N-{2-(cyclopropylamino)-3-(2-(2-fluoro-4-methoxyphenyl)ethyl]-4-oxo-3,4-dihydroquinazolin-7-yl}-3-(fluoromethyl)-N′-[(1S,2S,3S,5R)-2,6,6-trimethylbicyclo[3.1.1]hept-3-yl]piperazine-1-carboximidamide], the half-life reads like this: under setting [3], 2.9 h; under setting [4], 5.3 h.

Turning to `C[C@@H]1[C@@H](/N=C(/Nc2ccc3c(=O)n(CCc4ccc(Cl)cc4Cl)cnc3c2)N2CCNC(=O)C2)C[C@@H]2C[C@H]1C2(C)C` [Example 260, N-{3-[2-(2,4-dichlorophenyl)ethyl]-4-oxo-3,4-dihydroquinazolin-7-yl]-3-oxo-N′-[(1R,2S,3S,5S)-2,6,6-trimethylbicyclo[3.1.1]hept-3-yl]piperazine-1-carboximidamide], the half-life is 7.3 h under setting [2] and 7.2 h under setting [4].

Regarding `COc1ccc(CCn2cnc3cc(N/C(=N/C4C[C@@H]5C[C@H]([C@@H]4C)C5(C)C)N4CC(C)CC(C)C4)ccc3c2=O)c(F)c1` (stereo partly drawn) [Example 274, N-(3-{2-[2-fluoro-4-(methyloxy)phenyl]ethyl}-4-oxo-3,4-dihydro-7-quinazolinyl)-3,5-dimethyl-N-[(1R,2S,5S)-2,6,6-trimethylbicyclo[3.1.1]hept-3-yl]-1-piperidinecarboximidamide], the half-life is 2.7 h under setting [2], 2.3 h under setting [3] and 2.1 h under setting [4].

Take `COc1ccc(CCn2cnc3cc(N/C(=N/[C@H]4C[C@@H]5C[C@H]([C@@H]4C)C5(C)C)N4CCC[C@H]4CO)ccc3c2=O)c(F)c1` [Example 281, (2S)-N-(3-{2-[2-fluoro-(methyloxy)phenyl]ethyl]-4-oxo-3,4-dihydro-7-quinazolinyl)-2-(hydroxymethyl)-N′-[(1R,2S,3S,5S)-2,6,6-trimethylbicyclo[3.1.1]hept-3-yl]-1-pyrrolidinecarboximidamide]: the half-life was 6.5 h under setting [2] and 5.3 h under setting [4].

For `COc1ccc(CCn2cnc3cc(N/C(=N/[C@H]4C[C@@H]5C[C@H]([C@@H]4C)C5(C)C)N(C)CCO)ccc3c2=O)c(F)c1` [Example 288], the half-life under setting [3] is 1.2 h and the half-life under setting [4] was 1.1 h.

As for `COc1ccc(CCn2c(-c3cccnc3)nc3cc(N/C(=N/[C@H]4C[C@@H]5C[C@H]([C@@H]4C)C5(C)C)N4C[C@@H](C)N(C#N)[C@@H](C)C4)ccc3c2=O)c(F)c1` [Example 295], the half-life is 4.9 h under setting [1], 9.5 h under setting [3] and 3.3 h under setting [4].

Take `COc1ccc(CCn2c(-c3cccnc3)nc3cc(N/C(=N/[C@H]4C[C@@H]5C[C@H]([C@@H]4C)C5(C)C)N4C[C@@H](C)N(O)[C@@H](C)C4)ccc3c2=O)c(F)c1` [Example 296, (3R,5S)-N-[3-{2-[2-fluoro-4-(methyloxy)phenyl]ethyl}-4-oxo-2-(3-pyridinyl)-3,4-dihydro-7-quinazolinyl]-4-hydroxy-3,5-dimethyl-N′-[(1R,2S,3S,5S)-2,6,6-trimethylbicyclo[3.1.1]hept-3-yl]-1-piperazinecarboximidamide]: the half-life was 3.3 h under setting [2], 3.2 h under setting [3] and 4.9 h under setting [4].

`COc1ccc(CCn2cnc3cc(N/C(=N/[C@H]4C[C@@H]5C[C@H]([C@@H]4C)C5(C)C)N4C[C@@H](C)N(C#N)[C@@H](C)C4)ccc3c2=O)c(F)c1` [Example 301, (3R,5S)-4-cyano-N-(3-{-[2-fluoro-4-(methyloxy)phenyl]ethyl}-4-oxo-3,4-dihydro-7-quinazolinyl]-3,5-dimethyl-N′-[(1R,2S,3S,5S)-2,6,6-trimethylbicyclo[3.1.1]hept-3-yl]-1-piperazinecarboximidamide]: the half-life was 9.4 h under setting [2], 3.6 h under setting [3] and 2.5 h under setting [4].

Take `C[C@@H]1[C@@H](/N=C(/Nc2ccc3c(=O)n(CCc4ccc(Cl)cc4Cl)cnc3c2)N2CC(O)C2)C[C@@H]2C[C@H]1C2(C)C` [Example 337, N-{3-[2-(2,4-dichlorophenyl)ethyl]-4-oxo-3,4-dihydro-7-quinazolinyl}-3-hydroxy-N′-[(1R,2S,3S,5S)-2,6,6-trimethylbicyclo[3.1.1]hept-3-yl]-1-azetidinecarboximidamide]: the half-life is 5.1 h under setting [2], 4.6 h under setting [3] and 18.9 h under setting [4].

Consider “(3S)-N-{3-[2-(4-chlorophenyl)ethyl]-4-oxo-2-piperidin-3-yl-3,4-dihydroquinazolin-7-yl}-3-methyl-5-oxo-N′-[(1S,2S,3S,5R)-2,6,6-trimethylbicyclo[3.1.1]hept-3-yl]piperazine-1-carboximdamide [Example 241]”, for which the “Half-Lives (h) Brain” value under setting [5] is reported as 51 h. The “Half-Lives (h) Liver” value under setting [6] was found to be 17 h. In addition, the “Half-Lives (h) Plasma” value under setting [7] is reported as 21 h.
